The subject of test [1] is HepG2 cells. In words: HepG2 cytotoxicity assay (resazurin). It is filed as cell-based.
Test [2] has as its target Human cyto LeuRS (Homo sapiens, UniProt Q9P2J5). In words: LeuRS aminoacylation assay, IC50 determination. Type of test: biochemical.
Test [3] addresses T1, Human mito LeuRS (Homo sapiens, UniProt Q15031).
T1 sequence (Q15031 1-903): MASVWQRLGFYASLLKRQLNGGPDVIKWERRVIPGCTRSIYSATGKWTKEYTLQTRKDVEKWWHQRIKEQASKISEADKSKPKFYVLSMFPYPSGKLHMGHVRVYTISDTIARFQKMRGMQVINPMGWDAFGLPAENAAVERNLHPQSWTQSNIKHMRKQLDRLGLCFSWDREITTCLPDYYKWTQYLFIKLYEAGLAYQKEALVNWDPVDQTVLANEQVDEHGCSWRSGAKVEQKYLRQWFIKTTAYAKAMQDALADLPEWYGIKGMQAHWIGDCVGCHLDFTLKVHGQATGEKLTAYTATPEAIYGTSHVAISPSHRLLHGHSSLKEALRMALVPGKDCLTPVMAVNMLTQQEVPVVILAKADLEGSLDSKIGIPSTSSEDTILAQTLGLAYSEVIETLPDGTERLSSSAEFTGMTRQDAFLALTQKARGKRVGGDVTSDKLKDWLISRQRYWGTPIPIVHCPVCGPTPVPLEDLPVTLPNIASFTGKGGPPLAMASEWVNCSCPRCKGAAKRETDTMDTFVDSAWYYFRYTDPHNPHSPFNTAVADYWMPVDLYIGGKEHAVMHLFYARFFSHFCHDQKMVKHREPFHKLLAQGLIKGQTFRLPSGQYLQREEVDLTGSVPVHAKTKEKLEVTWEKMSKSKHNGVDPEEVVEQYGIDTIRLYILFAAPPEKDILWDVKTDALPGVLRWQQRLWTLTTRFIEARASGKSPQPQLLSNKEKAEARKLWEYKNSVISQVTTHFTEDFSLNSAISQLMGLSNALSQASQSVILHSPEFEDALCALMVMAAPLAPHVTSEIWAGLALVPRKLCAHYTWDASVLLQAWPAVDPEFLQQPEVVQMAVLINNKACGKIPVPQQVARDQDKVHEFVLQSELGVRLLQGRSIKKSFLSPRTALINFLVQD
Briefly: LeuRS aminoacylation assay, IC50 determination. Type of test: biochemical.

Test [4] deals with Mtb LeuRS (Mycobacterium tuberculosis, UniProt P9WFV1). Briefly: LeuRS aminoacylation assay, IC50 determination. It is filed as biochemical, M. tuberculosis. The protocol:
For biochemical analyses an N-terminal six histidine-tagged LeuRS was over-expressed in Escherichia coli which were E. coli codon-optimised (GenScript, Piscataway N.J., USA), from human mitochondria and cytoplasm, and M. tuberculosis. N-terminal six histidine-tagged LeuRS proteins were over-expressed and purified according to Novagen (Madison, Wis., USA) using an E. coli BL21(DE3) T7 RNA polymerase over-expression strain.
Experiments were performed in 96-well microtiter plates, using 80 μL reaction mixtures containing 50 mM HEPES-KOH (pH 8.0), 30 mM MgCl2 30 mM KCl, 13 μM L-[^14C]leucine (306 mCi/mmol, Perkin-Elmer), 15 uM total E. coli tRNA (Roche, Switzerland), 0.02% (w/v) BSA, 1 mM DTT, 0.2 μM LeuRS and 4 mM ATP at 30° C. Reactions were started by the addition of 4 mM ATP. After 7 minutes, reactions were quenched and tRNA was precipitated by the addition of 50 μL of 10% (w/v) TCA and transferred to 96-well nitrocellulose membrane filter plates (Millipore Multiscreen HTS, MSHAN4B50). Each well was then washed three times with 100 μL of 5% TCA. Filter plates were then dried under a heat lamp and the precipitated L-[^14C]leucine tRNALeu were quantified by liquid scintillation counting using a Wallac MicroBeta Trilux model 1450 liquid scintillation counter (PerkinElmer, Waltham, Mass., USA). The only difference was with the human cytoplasmic LeuRS when we used tRNA isolated from Brewer's Yeast (Roche Diagnostics GmbH).
Reactions were initiated by the addition of 4 mM ATP. Reactions were stopped after 7 minutes then precipitated and counted to quantify radioactivity. IC50 values were determined using the Graphpad Prism software package (Graphpad Software Inc. (La Jolla, Calif., USA).

Test [5] deals with A. baumannii ATCC 17978. In words: General antimicrobial activity assay (CLSI broth microdilution). Type of test: cell-based. The protocol: (§1) Whole-cell antimicrobial activity was determined by broth microdilution using the Clinical and Laboratory Standards Institute (CLSI) recommended procedure, Document M7-A7, “Methods for Dilution Susceptibility Tests for Bacteria that Grow Aerobically”.
A general note: Dilution methods test growth across graded concentrations, often in twofold steps.

In test [6] the test system is P. aeruginosa PA01. The description is as above. It is filed as cell-based. The protocol: as §1
Test [7] deals with E. coli K12 tolC::Tn10. The description is as above. It is filed as cell-based. The settings on record: Escherichia coli, read-out: MIC: E. coli K12 tolC::Tn10. The protocol: as §1
In test [8] the test system is E. coli K12. The description is as above. Type of test: cell-based. The method, then: as §1
In test [9] the test system is M. tuberculosis standard strain Mtb H37Rv. Briefly: MIC determination against mycobacteria (resazurin microtiter assay). It is filed as cell-based, Mycobacterium tuberculosis. The settings on record: for Selectivity Index (A/B): HepG2 cell 48 h Tox50 (A) / Mtb H37Rv MIC (B); for MIC: Mycobacterium tuberculosis, H37RV, read-out: Mtb H37Rv MIC (B). For orientation: Resazurin is reduced to fluorescent resorufin, in cell work by metabolically active cells.

Test [10] concerns M. tuberculosis clinical isolates. Briefly: MIC against clinical strains (BACTEC MGIT 960 System). Type of test: cell-based. The settings on record: Mycobacterium tuberculosis, nearly all of the clinical isolate strains of Tables 2A-2D.
Where [11] appears, read: Homo sapiens, HepG2, 48 h, read-out: HepG2 cell 48 h Tox50 (A).
[12] abbreviates: Acinetobacter baumannii, ATCC17978, read-out: MIC: A. baumannii ATCC 17978.
Where [13] appears, read: Pseudomonas aeruginosa, PA01, read-out: MIC: P. aeruginosa PA01.
Setting [14] is: Escherichia coli, K12, read-out: MIC: E. coli K12.
Setting [15] is: listed as EXAMPLE 4 G4-Cl, hydrochloride.
Setting [16] is: Homo sapiens, HepG2, 48 h; read-out: HepG2 cell 48 h Tox50 (A).
[17] abbreviates: Acinetobacter baumannii, ATCC17978; read-out: MIC: A. baumannii ATCC 17978.
Setting [18] is: Pseudomonas aeruginosa, PA01; read-out: MIC: P. aeruginosa PA01.
[19] abbreviates: Escherichia coli, K12; read-out: MIC: E. coli K12.

Converted amounts (≈) assume the structure as drawn. Like-named read-outs stand apart in the source and are kept apart here.

Sequence of Human cyto LeuRS (Q9P2J5 whole entry): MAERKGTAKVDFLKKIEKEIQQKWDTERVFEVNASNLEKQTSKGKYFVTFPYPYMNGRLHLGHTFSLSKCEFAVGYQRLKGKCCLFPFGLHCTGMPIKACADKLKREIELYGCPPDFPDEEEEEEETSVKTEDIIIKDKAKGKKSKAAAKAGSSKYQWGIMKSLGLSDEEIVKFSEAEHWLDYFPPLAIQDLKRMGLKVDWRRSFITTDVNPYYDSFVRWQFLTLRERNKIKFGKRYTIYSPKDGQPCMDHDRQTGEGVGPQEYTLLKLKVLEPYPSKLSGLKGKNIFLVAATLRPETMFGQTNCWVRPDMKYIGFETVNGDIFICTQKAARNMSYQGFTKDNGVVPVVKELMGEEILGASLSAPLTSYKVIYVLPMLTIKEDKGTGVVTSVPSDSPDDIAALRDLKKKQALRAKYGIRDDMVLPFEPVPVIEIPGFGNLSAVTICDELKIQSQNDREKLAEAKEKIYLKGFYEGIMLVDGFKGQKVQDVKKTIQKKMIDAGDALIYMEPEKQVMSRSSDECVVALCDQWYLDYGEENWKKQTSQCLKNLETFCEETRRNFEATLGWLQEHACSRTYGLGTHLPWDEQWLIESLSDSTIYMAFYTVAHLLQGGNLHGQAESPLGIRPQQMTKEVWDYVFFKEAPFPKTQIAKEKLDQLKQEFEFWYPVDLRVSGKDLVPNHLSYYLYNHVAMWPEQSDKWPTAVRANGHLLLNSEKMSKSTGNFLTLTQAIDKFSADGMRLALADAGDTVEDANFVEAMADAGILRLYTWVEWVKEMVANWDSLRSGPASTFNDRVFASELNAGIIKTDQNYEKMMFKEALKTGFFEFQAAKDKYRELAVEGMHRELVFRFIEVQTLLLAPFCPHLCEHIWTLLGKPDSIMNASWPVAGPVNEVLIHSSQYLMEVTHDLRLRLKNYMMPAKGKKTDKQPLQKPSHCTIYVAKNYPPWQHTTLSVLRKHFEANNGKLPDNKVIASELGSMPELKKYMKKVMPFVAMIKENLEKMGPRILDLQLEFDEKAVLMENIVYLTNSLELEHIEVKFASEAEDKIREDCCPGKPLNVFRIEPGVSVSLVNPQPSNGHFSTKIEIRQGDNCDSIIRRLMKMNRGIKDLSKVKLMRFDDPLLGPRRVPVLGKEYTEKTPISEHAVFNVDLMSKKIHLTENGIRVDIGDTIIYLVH
Sequence of Mtb LeuRS (P9WFV1 whole entry): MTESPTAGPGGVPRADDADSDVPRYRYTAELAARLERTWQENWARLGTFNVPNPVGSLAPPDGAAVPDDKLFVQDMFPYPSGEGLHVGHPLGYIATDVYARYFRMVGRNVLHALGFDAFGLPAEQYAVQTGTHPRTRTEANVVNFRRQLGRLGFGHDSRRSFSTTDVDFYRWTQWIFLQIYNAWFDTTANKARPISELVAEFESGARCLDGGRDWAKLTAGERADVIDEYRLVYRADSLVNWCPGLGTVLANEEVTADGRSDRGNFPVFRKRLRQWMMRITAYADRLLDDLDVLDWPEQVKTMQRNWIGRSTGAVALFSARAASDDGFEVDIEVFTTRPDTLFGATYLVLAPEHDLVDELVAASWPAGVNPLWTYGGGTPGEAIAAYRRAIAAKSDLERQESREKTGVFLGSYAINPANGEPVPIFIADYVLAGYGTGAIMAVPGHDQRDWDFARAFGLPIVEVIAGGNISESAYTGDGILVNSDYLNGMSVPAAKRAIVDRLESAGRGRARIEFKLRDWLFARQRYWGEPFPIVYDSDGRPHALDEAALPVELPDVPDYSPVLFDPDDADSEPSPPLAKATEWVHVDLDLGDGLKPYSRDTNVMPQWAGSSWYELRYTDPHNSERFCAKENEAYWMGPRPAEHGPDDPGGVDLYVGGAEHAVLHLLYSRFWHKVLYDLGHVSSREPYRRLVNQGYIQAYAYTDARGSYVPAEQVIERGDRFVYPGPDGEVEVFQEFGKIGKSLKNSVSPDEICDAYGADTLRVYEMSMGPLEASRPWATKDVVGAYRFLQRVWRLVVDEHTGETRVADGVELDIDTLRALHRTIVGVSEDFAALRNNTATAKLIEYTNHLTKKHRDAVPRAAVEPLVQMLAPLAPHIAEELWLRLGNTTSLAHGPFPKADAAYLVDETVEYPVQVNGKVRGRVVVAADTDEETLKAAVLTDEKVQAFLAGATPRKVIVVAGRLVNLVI

A word on the MIC: it is the smallest concentration in the dilution series that meets the test's criterion for growth inhibition. With `NCC1OB2OCCOc3cccc1c32` (racemic) [Example C2-H, reference compound], the IC50 in test [1] (setting [11]) is > 50 µM; in [2], 272 µM; in [3], > 300 µM; in test [4] (read-out: Mtb LeuRS IC50), 0.506 µM. Besides, the MIC in test [5] (setting [12]) stood at 2 µg/mL (≈ 9.76 µM); in test [6] (setting [13]) it was 2 µg/mL (≈ 9.76 µM); in [7], 4 µg/mL (≈ 19.5 µM); in test [8] (setting [14]) it was 2 µg/mL (≈ 9.76 µM). Moreover, the “Selectivity Index (A/B)” value in test [9] was >26.

`Cl.NC[C@H]1OB2OCCOc3ccc(Cl)c1c32` [Example 4, (S)-(3-chloro-7,8-dihydro-2H-1,6,9-trioxa-9a-borabenzo[cd]azulen-2-yl)methanamine hydrochloride]: the IC50 in test [1] (setting [11]) is > 1000 µM; in test [2], 94.7 µM; in [3] it was > 300 µM; in test [4] (read-out: Mtb LeuRS IC50), 0.148 µM; in test [4] (said to be sub-micromolar, read-out: IC50 values against M. tuberculosis), 0.1 µM. In addition, the minimum inhibitory concentration (MIC) in test [5] (setting [12]) is 64 µg/mL; in [6] (setting [13]), 64 µg/mL; in test [7] it was 64 µg/mL; in test [8] (setting [14]), 64 µg/mL; in [9], < 0.1 µM. The “Selectivity Index (A/B)” value is >12500 in [9] (setting [15]) and > 12,500 in test [9] (listed as Example 4 G4-CI, hydrochloride). The “Mtb H37Rv MIC (B)” value in [9] (setting [15]) was 0.08 µM.

Consider `CC1COc2ccc(Br)c3c2B(O1)OC3CN.Cl` (stereo not shown) [Example 8, (3-bromo-8-methyl-7,8-dihydro-2H-1,6,9-trioxa-9a-borabenzo[cd]azulen-2-yl)methanamine hydrochloride], for which the IC50 in test [1] (setting [11]) was > 50 µM; in test [2], > 300 µM; in test [4] (read-out: Mtb LeuRS IC50), 1.43 µM. For the same compound, the MIC in test [5] (setting [12]) was > 64 µg/mL; in test [6] (setting [13]), > 64 µg/mL; in test [7], > 64 µg/mL; in test [8] (setting [14]), > 64 µg/mL; in [9], 0.3 µM. Moreover, the “Selectivity Index (A/B)” value in [9] is listed as >167.

Consider `CC1(C)COc2ccc(Br)c3c2B(OC3CN)O1.Cl` (stereo not shown) [Example 9, (3-bromo-8,8-dimethyl-7,8-dihydro-2H-1,6,9-trioxa-9a-borabenzo[cd]azulen-2-yl)methanamine hydrochloride], for which the IC50 in test [1] (setting [11]) was > 50 µM; in test [2], > 300 µM; in test [4] (read-out: Mtb LeuRS IC50), 1.25 µM. Moreover, the MIC in test [5] (setting [12]) was > 64 µg/mL; in test [6] (setting [13]) it was > 64 µg/mL; in [7], > 64 µg/mL; in test [8] (setting [14]) it was > 64 µg/mL; in test [9], 0.3 µM. Also, the “Selectivity Index (A/B)” value is listed as >167 in test [9] (listed as EXAMPLE 9 G9-Br, hydrochloride) and > 167 in test [9] (listed as Example 9 G9-Br, hydrochloride).

Take `CC1(C)COc2ccc(Br)c3c2B(O[C@@H]3CN)O1.Cl` [Example 10, (S)-(3-bromo-8,8-dimethyl-7,8-dihydro-2H-1,6,9-trioxa-9a-borabenzo[cd]azulen-2-yl)methanamine hydrochloride]: the results for the IC50 in test [1] (setting [11]), in test [2] and in test [4] (read-out: Mtb LeuRS IC50) were 460 µM, > 300 µM and 1.13 µM, respectively. Moreover, the MIC in test [5] (setting [12]) was > 64 µg/mL; in test [6] (setting [13]), > 64 µg/mL; in [7], > 64 µg/mL; in test [8] (setting [14]), > 64 µg/mL; in [9], 0.16 µM.

For `CC1(C)COc2ccc(Cl)c3c2B(OC3CN)O1.Cl` (stereo not shown) [Example 11, (3-chloro-8,8-dimethyl-7,8-dihydro-2H-1,6,9-trioxa-9a-borabenzo[cd]azulen-2-yl)methanamine hydrochloride], the IC50 in [1] (setting [11]) is > 50 µM; in [2], > 300 µM; in test [4] (read-out: Mtb LeuRS IC50) it was 0.68 µM. Also, the MIC in test [5] (setting [12]) was > 64 µg/mL; in test [6] (setting [13]), > 64 µg/mL; in test [7], > 64 µg/mL; in test [8] (setting [14]), > 64 µg/mL; in test [9], 0.27 µM. The “Selectivity Index (A/B)” value was >185 in [9] (listed as EXAMPLE 11 G11-Cl, hydrochloride) and > 185 in test [9] (listed as Example 11 G11-CI, hydrochloride).

For the compound `CC1(C)COc2ccc(Cl)c3c2B(O[C@@H]3CN)O1.Cl` [Example 12, (S)-(3-chloro-8,8-dimethyl-7,8-dihydro-2H-1,6,9-trioxa-9a-borabenzo[cd]azulen-2-yl)methanamine hydrochloride], the results for the IC50 in test [1] (setting [11]), in test [2] and in test [4] (read-out: Mtb LeuRS IC50) were 322 µM, > 300 µM and 0.78 µM, respectively. Also, the MIC in test [5] (setting [12]) was > 64 µg/mL; in [6] (setting [13]), > 64 µg/mL; in test [7], > 64 µg/mL; in [8] (setting [14]), > 64 µg/mL; in test [9], 0.08 µM.

On to `CCOc1ccc(Br)c2c1B(O)O[C@@H]2CN` [Example C4-Br, reference compound], for which the IC50 is 32 µM in test [1] (setting [16]), 31 µM in test [2], > 300 µM in [3] and 0.07 µM in test [4] (Mtb LeuRS IC50). Besides, the MIC in [5] (setting [17]), in [6] (setting [18]), in test [7] and in test [8] (setting [19]) was 64 µg/mL (≈ 224 µM) each time.

On to `CCOc1cccc2c1B(O)O[C@@H]2CN` [Example C5-H, reference compound], for which the IC50 was 1.8 µM in test [1] (setting [16]), 25.6 µM in test [2], > 300 µM in test [3] and 0.111 µM in [4] (read-out: Mtb LeuRS IC50). Further, the “Selectivity Index (A/B)” value in test [9] worked out at 5.

As to `CCOc1ccc(Cl)c2c1B(O)O[C@@H]2CN` [Example C6-Cl, reference compound], the values for the IC50 in [1] (setting [16]), in test [3] and in test [4] (Mtb LeuRS IC50) were 36.3 µM, > 300 µM and 0.05 µM, respectively. Also, the minimum inhibitory concentration (MIC) in test [5] (setting [17]), in [6] (setting [18]), in test [7] and in test [8] (setting [19]) was 64 µg/mL (≈ 265 µM) each time.

As for `NC[C@H]1OB2OCCOc3ccc(Cl)c1c32` [Example G4-CI], the minimal inhibitory concentration (MIC) in test [10] is < 0.1 µM.

The values are drawn from patent US20180037595A1, “BENZOXABOROLE COMPOUNDS AND USES THEREOF” (GLAXOSMITHKLINE INTELLECTUAL PROPERTY (NO.2) LIMITED, priority 2015, published 2018).
